Literature values, collected in patent publication US5138036A, “Isolation and structural elucidation of the cytostatic cyclodepsipeptide dolastatin 14” (Arizona Board of Regents acting on behalf of Arizona State …, priority 1989, dated 1992).

Experiments:
[1] = tested on: B16 melanoma; settings: 1.44-11.1 μg/kg
[2] = tested on: human melanoma xenograph; settings: 3.25-26 μg/kg
[3] = tested on: P388 lymphocytic leukemia (PS system); settings: 1-4 μg/kg

CC[C@H](C)[C@@H]([C@@H](CC(=O)N1CCC[C@H]1[C@H](OC)[C@@H](C)C(=O)N[C@@H](Cc1ccccc1)c1nccs1)OC)N(C)C(=O)[C@@H](NC(=O)[C@H](C(C)C)N(C)C)C(C)C [dolastatin 10]
life extension [1]: 42-138% | curative response [2]: 17-67% | life extension [3]: 69-102%
